In patent US11173173B2, “Methods for treating chemoresistant cancer-initiating cells” (UNIVERSITY OF CONNECTICUT, priority 2015, dated 2021):

Key:
[1] = cited from earlier work
colon cancer = conditions: in vitro; cited from earlier work
[2] = test system: BM cells isolated from leukemic Pten:β-cat^Act double mutants (LSCs, HSPCs); experiment: In vitro treatment of BM cells from leukemic mice, flow cytometry for LSCs and HSPCs; assay type: cell-based, mouse; conditions: BM cells from leukemic double mutants in vitro
Protocol: Doxorubicin, 0105375, and thioguanosine were added to 11, 33 or 100 nM and cultured for 72 hours and analyzed by flow cytometry for LSCs (a) and HSPCs (b) as in FIG. 1. Fold change before and after culture for each population is indicated relative to equivalent vehicle control concentrations.
Bone marrow cells from leukemic mice at 8 weeks post-induction were cultured overnight at 5-20×10^4 cells per well in 96-well U-bottom tissue culture plates (Becton, Dickinson and Company; Cat. No. 353077) in HSC expansion media in low O2 conditions as previously described (Perry, J. M. et al. Cooperation between both Wnt/{beta}-catenin and PTEN/PI3K/Akt signaling promotes primitive hematopoietic stem cell self-renewal and expansion. Genes Dev 25, 1928-1942 (2011)). Doxorubicin (Sigma; D1515), 0105375 ((S)-N-(2-bromobenzyl)-N-(1-hydroxy-3-phenylpropan-2-yl)ethenesulfonamide, University of Kansas CMLD compound), or Thioguanosine was mixed with HSC expansion media and added to the cultures to obtain final concentrations of 11, 33, 100 nM. Equivalent amounts of DMSO alone (vehicle control) were added to parallel cultures for comparison. Half-media changes were performed approximately every 24 hrs. Cultures were analyzed after 72 hrs exposure to the indicated drug.

pan β-catenin = experiment: Western analysis of pan β-catenin in compound-treated TOP and FOP cells; conditions: TOP and FOP cells treated 48 hours at EC90, EC50, EC25
Protocol: (§1) Cytotoxicity profiles (CTG) of compounds were also determined. […] TOP and FOP cells were treated with candidate compounds at EC90, EC50 and EC25 derived from (b) for 48 hours, washed and flash frozen for Western analysis (c).
(§2) Activity of compounds was tested against HEK-TOP cells vs. HEK FOP cells for inhibition of luciferase activity. The cytotoxicity profiles of the compounds were also tested using Cell Titer Glo assay (Promega) on HEK-TOP cell lines. […] The HEK cells and HEK Top cells were plated at 300,000 cells/well in 6 well plates and were treated in duplicate with EC90, EC50 and EC25 concentrations of the 25 repurchased compounds as well as three controls. After 48 h of exposure, the cells were washed with PBS and flash frozen. The frozen cells were lysed directly in plates for Western analysis.

pS^552-β-catenin = experiment: Western analysis of pS552-β-catenin in compound-treated TOP and FOP cells
Protocol: as §1, §2

Compound | activity in vivo [1] | reversal of resistance to PI3K and Akt inhibitors (colon cancer) | potency relative to DXR [2] | effect on pan β-catenin (Western) (pan β-catenin) | inhibition of pS552-β-catenin (Western) (pS^552-β-catenin; TOP and FOP cells treated 48 hours at EC90, EC50, EC25) | concentration needed to inhibit pS552-β-catenin (pS^552-β-catenin; relatively high concentrations) [μM]
Oc1nc(-c2ccc(C(F)(F)F)cc2)nc2c1CSCC2 [XAV-939] | low activity of this inhibitor in vivo | reverse this resistance in vitro | – | – | – | –
C=CS(=O)(=O)N(Cc1ccccc1Br)[C@H](CO)Cc1ccccc1 [compound 0105375, (S)-N-(2-bromobenzyl)-N-(1-hydroxy-3-phenylpropan-2-yl)ethenesulfonamide] | – | – | far less potency than DXR | no significant effect on pan β-catenin | effectively inhibited pS^552-β-catenin | > 1
